Assay results: publication PMC3997483, “Aminostyrylbenzofuran Directly Reduces Oligomeric Amyloid-β and Reverses Cognitive Deficits in Alzheimer Transgenic Mice” (PLoS ONE, 2014)

Experiments:
[1] = Metabolic stability in liver microsomes; assay type: in vitro ADME, human
[2] = Pharmacokinetics IV/PO in dogs; assay type: in vivo, beagle dogs; conditions: for AUC(0-t): read-out: AUC0–24h
Description: (§1) Pharmacokinetics profile of KMS88009 was obtained using ICR mice, SD rats, beagle dogs and cynomolgus monkeys. Animals were fasted overnight before KMS88009 administration. Mice were divided into 2 groups to receive KMS88009 as a single dose of 2.1 mg/kg intravenous (IV) bolus or 10 mg/kg orally (PO) by gavage. Additionally, KMS88009 was administered orally to estimate the BBB penetration in mice (10, 30 and 100 mg/kg). […] Dog received KMS88009 either as an IV bolus (1 mg/kg) via the great saphenous vein or by oral gavage (4 mg/kg). KMS88009 was administrated to monkeys as an IV bolus (1 mg/kg) via the femoral vein or by oral gavage (4 mg/kg). Vehicle for IV and PO administration was DMSO/tween-20/saline (3.3∶19.8∶[…]). […]. Brain samples were weighed and Daunce-homogenized in 10-fold volume of ice-chilled 4% bovine serum albumin (BSA) solution at room temperature. Plasma and brain homogenates were kept frozen at −70°C until analysis. The levels of KMS88009 were determined by the LC-MS/MS analysis. Pharmacokinetic parameters, time to the maximum concentration (Tmax), maximum concentration (Cmax), elimination half-life (T1/2), volume of distribution (Vd), clearance (Cl) and mean residual time (MRT), of KMS88009 were calculated based on plasma concentration-time data by a non-compartmental method using WinNonlin Version 5.2 (Pharsight, USA). Area under the curve from 0 to 24 hr (AUC0-24h) and area under the curve from 0 to infinity (AUCINF) were obtained by linear and log linear trapezoidal summations.

CYP1A2 = target: T1, CYP1A2 (Homo sapiens, UniProt P05177); assay: CYP inhibition assay (Crespi, fluorescent probe); assay type: in vitro ADME
T1 construct: five CYP isozymes (CYP3A4, 1A2, 2C9, 2C19, and 2D6) from human LM; from tissue; host or cells: human liver microsomes
T1 sequence (P05177 1-516): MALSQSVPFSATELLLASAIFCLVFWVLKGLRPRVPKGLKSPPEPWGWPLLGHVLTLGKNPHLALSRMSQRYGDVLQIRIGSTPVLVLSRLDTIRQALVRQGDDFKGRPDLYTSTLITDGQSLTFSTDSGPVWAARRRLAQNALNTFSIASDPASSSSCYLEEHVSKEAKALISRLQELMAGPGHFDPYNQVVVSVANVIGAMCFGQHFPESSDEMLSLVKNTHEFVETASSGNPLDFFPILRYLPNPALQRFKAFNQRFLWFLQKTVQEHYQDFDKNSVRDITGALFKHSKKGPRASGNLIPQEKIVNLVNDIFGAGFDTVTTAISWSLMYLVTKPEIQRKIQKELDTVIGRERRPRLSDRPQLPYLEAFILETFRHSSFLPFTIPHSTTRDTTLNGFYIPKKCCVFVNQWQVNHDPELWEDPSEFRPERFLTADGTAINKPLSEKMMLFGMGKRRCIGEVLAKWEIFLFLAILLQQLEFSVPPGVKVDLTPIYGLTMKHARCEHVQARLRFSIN
Description: (§2) Cytochrome P450 (CYP) inhibition assay was carried out according to the principle of the Crespi assay. Fluorescent probe substrates (BD Gentest, USA) used for each CYP isozyme were: 3-cyano-7-ethoxycoumarin for CYP1A2 and CYP2C19, 7-benzyloxy-trifluoromethylcoumarin for CYP3A4, 7-methoxy-4-trifluoromethylcoumarin for CYP2C9 and 3-[2-(N,N-diethyl-N-methylamino)ethyl]-7-methoxy-4-methyl-coumarin for CYP2D6. […] All reactions were stopped by addition of 75 µL of 0.1 M tris in acetonitrile and analyzed by an LC-MS/MS product ion monitoring method on Agilent 1200 HPLC (Agilent, USA) and API-5000 mass spectrometer (Canada). IC50 value was calculated using SigmaPlot 10.0 (Systat Software Inc., USA).

CYP2D6 = target: T2, CYP2D6 (Homo sapiens, UniProt P10635); assay: CYP inhibition assay (Crespi, fluorescent probe); assay type: in vitro ADME
T2 construct: five CYP isozymes (CYP3A4, 1A2, 2C9, 2C19, and 2D6) from human LM; from tissue; host or cells: human liver microsomes
T2 sequence (P10635 whole entry): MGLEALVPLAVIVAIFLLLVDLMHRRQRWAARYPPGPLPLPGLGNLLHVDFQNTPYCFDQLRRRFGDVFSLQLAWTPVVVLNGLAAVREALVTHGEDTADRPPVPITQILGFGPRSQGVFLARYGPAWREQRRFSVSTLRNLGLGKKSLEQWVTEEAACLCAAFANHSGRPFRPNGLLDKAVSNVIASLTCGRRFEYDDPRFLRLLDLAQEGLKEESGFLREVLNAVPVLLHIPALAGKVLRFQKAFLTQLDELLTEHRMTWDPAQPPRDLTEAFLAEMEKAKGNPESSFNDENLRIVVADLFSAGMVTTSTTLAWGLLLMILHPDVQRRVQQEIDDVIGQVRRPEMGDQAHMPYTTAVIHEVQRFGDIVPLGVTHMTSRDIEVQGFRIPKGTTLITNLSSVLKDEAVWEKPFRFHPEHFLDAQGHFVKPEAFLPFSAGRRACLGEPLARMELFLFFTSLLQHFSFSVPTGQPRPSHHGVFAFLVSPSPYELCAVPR
Description: as §2

CYP2C19 = target: T3, CYP2C19 (Homo sapiens, UniProt P33261); assay: CYP inhibition assay (Crespi, fluorescent probe); assay type: in vitro ADME
T3 construct: five CYP isozymes (CYP3A4, 1A2, 2C9, 2C19, and 2D6) from human LM; from tissue; host or cells: human liver microsomes
T3 sequence (P33261 whole entry): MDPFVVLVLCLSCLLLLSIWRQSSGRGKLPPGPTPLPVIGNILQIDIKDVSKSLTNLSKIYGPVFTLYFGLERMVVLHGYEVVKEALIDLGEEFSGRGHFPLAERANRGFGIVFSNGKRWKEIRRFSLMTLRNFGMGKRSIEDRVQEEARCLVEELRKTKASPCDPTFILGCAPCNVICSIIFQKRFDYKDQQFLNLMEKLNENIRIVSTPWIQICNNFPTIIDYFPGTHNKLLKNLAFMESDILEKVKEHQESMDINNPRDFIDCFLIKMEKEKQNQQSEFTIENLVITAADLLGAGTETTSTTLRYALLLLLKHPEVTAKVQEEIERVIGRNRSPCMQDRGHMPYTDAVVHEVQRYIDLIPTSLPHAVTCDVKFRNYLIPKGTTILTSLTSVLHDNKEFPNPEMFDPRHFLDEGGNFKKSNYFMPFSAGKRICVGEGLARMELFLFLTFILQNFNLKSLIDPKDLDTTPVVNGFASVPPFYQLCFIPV
Description: as §2

CYP3A4 = target: T4, CYP3A4 (Homo sapiens, UniProt P08684); assay: CYP inhibition assay (Crespi, fluorescent probe); assay type: in vitro ADME
T4 construct: five CYP isozymes (CYP3A4, 1A2, 2C9, 2C19, and 2D6) from human LM; from tissue; host or cells: human liver microsomes
T4 sequence (P08684 whole entry): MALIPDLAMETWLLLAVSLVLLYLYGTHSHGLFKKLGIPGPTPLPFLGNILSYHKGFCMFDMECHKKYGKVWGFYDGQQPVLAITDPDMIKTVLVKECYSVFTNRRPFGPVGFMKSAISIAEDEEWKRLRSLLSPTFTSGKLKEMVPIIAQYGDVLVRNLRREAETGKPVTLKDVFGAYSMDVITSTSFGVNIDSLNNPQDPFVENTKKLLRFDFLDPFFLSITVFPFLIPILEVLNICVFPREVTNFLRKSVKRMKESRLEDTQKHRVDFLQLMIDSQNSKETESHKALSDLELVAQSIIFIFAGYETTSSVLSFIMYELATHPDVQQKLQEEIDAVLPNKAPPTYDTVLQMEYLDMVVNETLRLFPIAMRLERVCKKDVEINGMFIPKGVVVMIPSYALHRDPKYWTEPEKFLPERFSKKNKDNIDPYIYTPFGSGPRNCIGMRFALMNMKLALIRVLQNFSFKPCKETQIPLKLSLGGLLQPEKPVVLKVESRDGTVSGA
Description: as §2

CYP2C9 = target: T5, CYP2C9 (Homo sapiens, UniProt P11712); assay: CYP inhibition assay (Crespi, fluorescent probe); assay type: in vitro ADME
T5 construct: five CYP isozymes (CYP3A4, 1A2, 2C9, 2C19, and 2D6) from human LM; from tissue; host or cells: human liver microsomes
T5 sequence (P11712 whole entry): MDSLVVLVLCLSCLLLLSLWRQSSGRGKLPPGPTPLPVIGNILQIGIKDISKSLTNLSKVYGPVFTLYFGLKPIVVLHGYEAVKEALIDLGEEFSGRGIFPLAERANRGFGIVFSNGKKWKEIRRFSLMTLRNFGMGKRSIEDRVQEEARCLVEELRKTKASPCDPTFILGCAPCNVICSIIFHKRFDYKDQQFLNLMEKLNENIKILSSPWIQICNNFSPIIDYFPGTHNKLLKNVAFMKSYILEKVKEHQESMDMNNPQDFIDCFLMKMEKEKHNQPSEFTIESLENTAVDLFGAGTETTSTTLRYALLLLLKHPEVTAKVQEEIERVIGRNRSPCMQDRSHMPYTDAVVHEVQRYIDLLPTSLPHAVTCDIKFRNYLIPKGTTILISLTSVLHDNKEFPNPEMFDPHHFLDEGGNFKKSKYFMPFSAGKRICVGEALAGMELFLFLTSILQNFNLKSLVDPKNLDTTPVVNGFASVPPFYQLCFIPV
Description: as §2

APP/PS1 TG mice [3] = assay: Contextual fear conditioning, prophylactic trial; assay type: in vivo, mouse; conditions: vehicle TG 15.3%, WT 54.1%
[4] = Pharmacokinetics IV/PO in rats; assay type: in vivo, SD rats; conditions: for AUC(0-t): read-out: AUC0–24h
Description: as §1

APP/PS1 TG mice [5] = assay: Y-maze, prophylactic trial; assay type: in vivo, mouse; conditions: 5 to 12 months of age
in vitro = conditions: monkey, liver microsomes

COc1ccc2cc(C=Cc3ccc(N(C)C)cc3)oc2c1 [KMS88009, 6-methoxy-2-(4-dimethylaminostyryl) benzofuran]
Metabolic stability ([1]; human liver microsomes 1 mg/mL, 5 µM, symbol): √ (Mean percent value is confirmed over 90% at 60 min.) | remaining at 1 h, 5 µM ([1]; human liver microsomes, read-out: Remaining % of parent molecule at 60 min.): 92.7 ± 0.4% | MRT last ([2]; beagle, plasma, dog IV 1 mg/kg): 2.9 ± 0.6 h | Vd ([2]; beagle, plasma, dog IV 1 mg/kg): 115 ± 61.1 L/kg | clearance ([2]; beagle, plasma, dog IV 1 mg/kg): 158 mL/min/kg | half-life ([2]; beagle, plasma, dog IV 1 mg/kg): 8.1 ± 1.4 h | MRT last ([2]; beagle, plasma, dog PO 4 mg/kg): 3.8 ± 0.4 h | Tmax ([2]; beagle, plasma, dog PO 4 mg/kg): 1 h | half-life ([2]; beagle, plasma, dog PO 4 mg/kg): 8.8 ± 2.5 h | AUC(0-inf) ([2]; beagle, dog IV 1 mg/kg, plasma): 117 ± 43.6 ng·h/mL | AUC(0-t) ([2]; beagle, dog IV 1 mg/kg, plasma): 112 ± 43.4 ng·h/mL | AUC(0-inf) ([2]; beagle, dog PO 4 mg/kg, plasma): 103 ± 13 ng·h/mL | Cmax ([2]; beagle, dog PO 4 mg/kg, plasma): 32.8 ± 9.8 ng/mL | AUC(0-t) ([2]; beagle, dog PO 4 mg/kg, plasma): 97.1 ± 14 ng·h/mL | BA ([2]; dog PO 4 mg/kg vs IV 1 mg/kg): 21.6% | IC50 (CYP1A2): 0.74 ± 0.12 µM | IC50 (CYP2D6): > 50 µM | IC50 (CYP2C19): 2.51 ± 0.21 µM | IC50 (CYP3A4): 9.84 ± 0.15 µM | IC50 (CYP2C9): 22.4 ± 1.25 µM | freezing responses (contextual fear conditioning) (APP/PS1 TG mice [3]; PO 10 mg/kg/day): 42.3% | freezing responses (contextual fear conditioning) (APP/PS1 TG mice [3]; PO 30 mg/kg/day): 48.6% | freezing responses (contextual fear conditioning) (APP/PS1 TG mice [3]; PO 100 mg/kg/day): 49.3% | MRT last ([4]; SD, plasma, rat IV 1.25 mg/kg): 1.8 h | Vd ([4]; SD, plasma, rat IV 1.25 mg/kg): 8 L/kg | clearance ([4]; SD, plasma, rat IV 1.25 mg/kg): 13.3 mL/min/kg | half-life ([4]; SD, plasma, rat IV 1.25 mg/kg): 7.2 h | MRT last ([4]; SD, plasma, rat PO 2.5 mg/kg): 4 h | half-life ([4]; SD, plasma, rat PO 2.5 mg/kg): 4 h | AUC(0-inf) ([4]; SD, rat IV 1.25 mg/kg, plasma): 1670 ng·h/mL | AUC(0-t) ([4]; SD, rat IV 1.25 mg/kg, plasma): 1640 ng·h/mL | AUC(0-inf) ([4]; SD, rat PO 2.5 mg/kg, plasma): 929 ng·h/mL | AUC(0-t) ([4]; SD, rat PO 2.5 mg/kg, plasma): 908 ng·h/mL | BA ([4]; rat PO […] vs IV 1.25 mg/kg): 27.8% | frequency of spontaneous alternation (Y-maze) (APP/PS1 TG mice [5]; PO 10 mg/kg/day): 69.3% | frequency of spontaneous alternation (Y-maze) (APP/PS1 TG mice [5]; PO 30 mg/kg/day): 68.5% | frequency of spontaneous alternation (Y-maze) (APP/PS1 TG mice [5]; PO 100 mg/kg/day): 70.2% | half-life at 5 µM (in vitro): 0.587 ± 0.01 h | remaining at 1 h, 5 µM (in vitro): 30.9 ± 0.2%
